One experiment deals with A549 tumor cell line. Kind of experiment: Growth inhibition (GI50), A549. The format is cell-based, human.
A further experiment deals with MAP kinase. Kind of experiment: MAP kinase phosphorylation in stimulated MCF-7 cells (Western blot). In kind it is cell-based. The following applies: 15 μM preincubation 3 h; insulin- and EGF-stimulated MCF-7 cells. As to the method: (§1) Quiescent MCF-7 cells were preincubated with (“+” in FIGS. 6-8) or without (“−” in FIGS. 6-8) 15 μM of the R or S enantiomer of ET-16-phosphono-TDB (TDB-PC in FIGS. 7-9) in DMEM supplemented with BSA (0.5 mg/mL) for 3 h. The cells were washed twice and stimulated with […] growth factor (EGF) or insulin for various periods. At the end of the incubation, the medium was aspirated, and the cells washed with ice-cold PBS and scraped into ice cold buffer comprising 20 mM Tris-HCl (pH 7.4) 2 mM EGTA, 100 mM β-glycerophosphate, 1 mM Na3VO4, aprotinin (10 μg/mL), leupeptin (10 μg/mL), 0.2 mM aininoethylbenzylsulfonyl fluoride, 0.2 mM benzarnidine, 1 mM dithiothreitol, 1% triton-X-100, and 0.5% NP-40). After ultrasonication, the mixture was centrifuged at 100,000×g for 30 min. The cell lysates were flash frozen and stored at −70° C. until required.
(§2) MAP kinase activity in cell lysates from EGF and insulin-stimulated MCF-7 cells were assessed by Western blot analysis with phospho-specific antibodies according to the instructions provided by the manufacturer (New England Biolabs). PKB/AKT activity in insulin-stimulated MCF-7 cell lysates was also assessed with phospho-specific antibodies by Western blot analysis. Bound antibody was visualized by chemiluminescence using reagents from Boehringer Mannheim and quantitated with a multiimager Fluor S system (BioRad).
(In general: Immunoblotting shows a protein as a band on a membrane.)

The next experiment deals with MCF7/ADR tumor cell line. The experiment is described as follows: Growth inhibition (GI50), MCF7/ADR. In kind it is cell-based, human.
The test system of experiment [1] is SK-N-MC neuroblastoma cell line. Kind of experiment: Proliferation of log-phase cells, SK-N-MC. The format is cell-based. The following applies: 48 h incubation, 10% FBS-supplemented medium, read-out: IC50 values (drug concentration required to reduce cell growth by 50%). The method, then: (§3) All the cell lines were grown from frozen stocks originally obtained from ATCC. T47D, MDA-MB-468 and MCF-7 (breast cancer cell lines) were grown in DMEM. SK-N-MC and SK-N-SH (neuroblastoma) were grown in minimum essential medium with non-essential amino acids and Earle's balanced salt solution. All media were supplemented with 10% FBS and antibiotics (Ashagbley, A., Samadder, P., Bittman, R., Erukulla, R. K., Byun, H-S., Arthur, G. (I 996) Anticancer Res. 16, 1813-1818).
(§4) The effect of the ET-16-phosphono-TDBs on cell proliferation was conducted as previously described (Ashagbley, A., Samadder, P., Bittman, R., Erukulla, R. K., Byun, H-S., Arthur, G. (1996) Anticancer Res. 16, 1813-1818; and Lu, X., and Arthur, G. (1992) Cancer Res. 52, 2806-2812). The cells were seeded in 24-well dishes at a density of 20,000 cells/well with 10% FBS-supplemented medium. The cell numbers were monitored daily. […] The cell numbers at the time of addition of the drugs were determined with a Coulter ZM counter. After 48 h incubation, the cell numbers were determined and the increase in cell number over the numbers at the time of the addition of the drugs was determined and expressed as a function of the control cells which received no drug. The viability of the cells was assessed by the ability to exclude trypan blue dye.

Experiment [2] has as its system WI-38 normal fibroblast cell line. Kind of experiment: Growth inhibition (GI50), WI-38. The settings on record: WI38 normal cell line (human). In kind it is cell-based. The source says: (§5) For growth inhibitory evaluation, five human tumor cell lines (U937; HT29; A549; MCF7; MCF7/ADR) and two normal fibroblast cell lines (NIH-3T3, murine; WI-38, human) were used. For comparison, the activity of free L-ET18OCH3 and D-ET18OCH3 was examined.

For experiment [3], the system named is MDA-MB-468 breast epithelial cancer cell line. Kind of experiment: Proliferation of log-phase cells, MDA-MB-468. In kind it is cell-based. The following applies: 48 h incubation, 10% FBS-supplemented medium, read-out: IC50 values (drug concentration required to reduce cell growth by 50%). As to the method:
as §3, §4

For another experiment, the system named is HT29 tumor cell line. The experiment is described as follows: Growth inhibition (GI50), HT29. The format is cell-based, human.
Experiment [4] relates to T47D breast epithelial cancer cell line. The experiment is described as follows: Proliferation of log-phase cells, T47D. In kind it is cell-based. The following applies: 48 h incubation, 10% FBS-supplemented medium, read-out: IC50 values (drug concentration required to reduce cell growth by 50%). As to the method: as §3, §4
The next experiment concerns PKB/AKT. Kind of experiment: PKB/AKT phosphorylation in stimulated MCF-7 cells (Western blot). In kind it is cell-based. The following applies: 15 μM preincubation 3 h; insulin- and EGF-stimulated MCF-7 cells. As to the method:
as §1, §2

The next experiment concerns MCF7 tumor cell line. The experiment is described as follows: Growth inhibition (GI50), MCF7. In kind it is cell-based, human.
In the next experiment the test system is U937 tumor cell line. The experiment is described as follows: Growth inhibition (GI50), U937. The format is cell-based, human.
The subject of experiment [5] is SK-N-SH neuroblastoma cell line. Kind of experiment: Proliferation of log-phase cells, SK-N-SH. The format is cell-based. The following applies: 48 h incubation, 10% FBS-supplemented medium, read-out: IC50 values (drug concentration required to reduce cell growth by 50%). The method, then:
as §3, §4

Experiment [6] has as its system normal cell lines as compared to the tumor cell lines. The experiment is described as follows: Growth inhibition, normal versus tumor cell lines. The format is cell-based. The settings on record: normal (NIH-3T3, WI-38) versus tumor cell lines.
Excerpt: as §5

Experiment [7] has as its system NIH-3T3 normal fibroblast cell line. Kind of experiment: Growth inhibition (GI50), NIH-3T3. In kind it is cell-based. The settings on record: NIH-3T3 normal cell line (murine).
Excerpt: as §5

The test system of experiment [8] is MCF-7 breast epithelial cancer cell line. The experiment is described as follows: Proliferation of log-phase cells, MCF-7. The format is cell-based. The following applies: 48 h incubation, 10% FBS-supplemented medium, read-out: IC50 values (drug concentration required to reduce cell growth by 50%). As to the method:
as §3, §4

By GI50 is commonly meant the concentration that inhibits growth by half. High values mean lower sensitivity of the cells, low ones greater sensitivity of the cells. As for `CCCCCCCCCCCCCCCCOC[C@H](C=CP(=O)([O-])OCC[N+](C)(C)C)OC` [(S)-ET-16-phosphono-TDB, 2′-(Trimethylammonio)ethyl 4-(hexadecyloxy)-3-(S)-methoxy-1-butenephosphonate], the GI50 in the experiment with A549 tumor cell line is 9 µM; in the experiment on MCF7/ADR tumor cell line, more than 40 µM; in experiment [2] it was 14.4 µM; with HT29 tumor cell line, 2.8 µM; in the experiment with MCF7 tumor cell line, 32.4 µM; in the experiment on U937 tumor cell line it was 1.1 µM. Moreover, the GI50 in experiment [7] amounted to 66.3 µM. In addition, the “inhibition of phosphorylation of MAP kinase” value in the experiment with MAP kinase was “to a greater extent than the less active R enantiomer”. Further, the IC50 in experiment [1] amounted to 2.2 µM; in experiment [3] it was 4.2 µM; in [4], 0.9 µM; in experiment [5], 1.8 µM; in experiment [8] it was 1.9 µM. For the same molecule, the “inhibition of phosphorylation of PKB” value with PKB/AKT is recorded as “to a greater extent than the less active R enantiomer”. Besides, the “selectivity: GI50 values for the normal cell lines as compared to the tumor cell lines” value in experiment [6] is “remarkable selectivity”.

Regarding `CCCCCCCCCCCCCCCCOC[C@@H](C=CP(=O)([O-])OCC[N+](C)(C)C)OC` [(R)-ET-16-phosphono-TDB, 2′-(Trimethylammonio)ethyl 4-(hexadecyloxy)-3-(R)-methoxy-1-butenephosphonate], the GI50 is 15.3 µM in the experiment on A549 tumor cell line; more than 40 µM in the experiment on MCF7/ADR tumor cell line; 57.5 µM in experiment [2]; 5.9 µM in the experiment with HT29 tumor cell line; 35.1 µM with MCF7 tumor cell line; 2.2 µM in the experiment with U937 tumor cell line. In experiment [7], growth was halved (GI50) at 77.3 µM. In addition, the IC50 in experiment [1] was more than 5 µM; in experiment [3], more than 5 µM; in [4], more than 5 µM; in experiment [5], 2.5 µM; in experiment [8] it was 4.1 µM. Further, in experiment [6], the “selectivity: GI50 values for the normal cell lines as compared to the tumor cell lines” value is on record as “remarkable selectivity”.
